22 compounds from US9340492B2, “Meta-Diarylaniline or meta-diarylpyridinamine compound, preparation method and medical uses thereof” (INSTITUTE OF PHARMACOLOGY AND TOXICOLOGY ACADEMY OF …, priority 2012, dated 2016) can be followed below.

The subject of data set [1] is NL4-3 virus. Description: Anti-HIV activity assay (TZM-bl cell model), NL4-3 wild-type. It counts as cell-based. The conditions noted are these: Human immunodeficiency virus 1, NL43; NL4-3 HIV wild-type, TZM-bl cells; read-out: EC50, concentration effective to inhibit the replication of half of viruses. As to the method: (§1) The assay was carried out by reference to the document (Dang, Z, et al. J. Med. Chem. 2009, 52, 7887-7891). In particular, in a 96-well cell culture plate, solutions of the compounds to be tested at different concentrations were mixed with TZM-bl cells (from National Institutes of Health (NIH)) infected with 200 TCID50 NL4-3 virus, respectively. 2 days later, the culture medium was removed, 100 μl of Bright Glo reagent was added to each well, and Victor 2 luminometer was used to detect the […] of the cells.

Data set [2] concerns NL4-3 virus (HIV, wild-type). The data set is described as above. The conditions noted are these: human, TZM-bl cells infected with HIV-1 NL4-3 virus; CC50 (TZM-bl) / EC50 (NL4-3); read-out: SI, selective index, ratio of toxic CC50 value to active EC50 value. Type of data set: cell-based. As to the method: as §1
Data set [3] can be described thus: TZM-bl cytotoxicity assay (XTT). Type of data set: cell-based. Conditions: human, TZM-bl cells, read-out: CC50, concentration effective to inhibit the growth of half of cells. As to the method: The assay was carried out by reference to the document (Dang, Z, et al. J. Med. Chem. 2009, 52, 7887-7891). In particular, in a 96-well cell culture plate, solutions of Compounds 1-57 at different concentrations (100 μl) were mixed with an equivalent volume of TZM-bl cells (from National Institutes of Health (NIH)) (5×10^5/mL), and were incubated at 37° C. for 4 d. 50 μl of freshly prepared XTT solution (1 mg/mL) containing 0.02 μM PMS was added. Optical density at 450 nm was measured 4 h later.
(Formazan colour is commonly taken as a measure of viable cells.)

For the compound `Cc1cc(/C=C/C#N)cc(C)c1Oc1cc(Nc2ccc(C#N)cc2)c([N+](=O)[O-])cc1C(F)(F)F` [Compound 1, 5-(4″-cyanovinyl-2″,6″-dimethylphenoxy)-N^1-(4′-cyanophenyl)-4-trifluoromethyl-2-nitroaniline], the melting point lay within 248 to 250 °C.
The same measure, in the same setting: to `COC(=O)c1cc([N+](=O)[O-])c(Nc2ccc(C#N)cc2)cc1Oc1c(C)cc(/C=C/C#N)cc1C` [Compound 3, 5-(4″-cyanovinyl-2″,6″-dimethylphenoxy)-N^1-(4′-cyanophenyl)-4-methoxycarbonyl-2-nitroaniline] belongs 260 to 262 °C.
Still for that read-out and setting: in the case of `Cc1cc(/C=C/C#N)cc(C)c1Oc1cc(Nc2ccc(C#N)cc2)c([N+](=O)[O-])cc1CO` [Compound 5, N^1-(4′-cyanophenyl)-5-(4″-cyanovinyl-2″,6″-dimethylphenoxy)-4-hydroxymethyl-2-nitroaniline] it was 232 to 234 °C; in that of `Cc1cc(/C=C/C#N)cc(C)c1Oc1cc(Nc2ccc(C#N)cc2)c([N+](=O)[O-])cc1C(=O)O` [Compound 7, 4-carboxyl-5-(4″-cyanovinyl-2″,6″-dimethylphenoxy)-N^1-(4′-cyanophenyl)-2-nitroaniline], 262 to 265 °C.
In turn, `Cc1cc(/C=C/C#N)cc(C)c1Oc1cc(Nc2ccc(C#N)cc2)c([N+](=O)[O-])cc1C(N)=O` [Compound 9] yielded a melting point of 278 to 280 °C.
As to `Cc1cc(CCC#N)cc(C)c1Oc1cc(Nc2ccc(C#N)cc2)c(N)cc1C(N)=O` [Compound 10, 4-carbamoyl-N^1-(4′-cyanophenyl)-5-(4″-cyanoethyl-2″,6″-dimethylphenoxy)-1,2-phenylenediamine], the EC50 in data set [1] was 0.00139 µM. The selectivity ratio at 2 days in data set [2] is > 6760. Further, the CC50 at 4 d in data set [3] was > 9.4 µM.
In turn, `CNC(=O)c1cc([N+](=O)[O-])c(Nc2ccc(C#N)cc2)cc1Oc1c(C)cc(/C=C/C#N)cc1C` [Compound 11, N^1-(4′-cyanophenyl)-5-(4″-cyanovinyl-2″,6″-dimethylphenoxy)-4-(N-methylacylamino)-2-nitroaniline] yielded a melting point of 218 to 220 °C.
With `CCCc1cc(C)c(Oc2ccc(N)c(Nc3ccc(C#N)cc3)n2)c(C)c1` [Compound 16, N^2-(4-cyanoanilinyl)-6-(2,6-dimethyl-4-propylphenoxy)-3-aminopyridine], the EC50 in data set [1] was found to be 0.0147 µM. The selectivity ratio at 2 days in data set [2] was found to be 1120. In addition, the CC50 at 4 d in data set [3] was 16.4 µM.
The corresponding values for `Cc1cc(CO)cc(C)c1Oc1cc(Nc2ccc(C#N)cc2)c(N)cc1CO` [Compound 18, N^1-(4′-cyanophenyl)-5-(4″-hydroxymethyl-2″,6″-dimethylphenoxy)-4-hydroxymethyl-1,2-phenylenediamine] are 0.01 µM, > 1590 and > 15.9 µM.
The corresponding values for `N#CCCc1cc(F)c(Oc2ccc(N)c(Nc3ccc(C#N)cc3)n2)c(F)c1` [Compound 21, N^2-(4-cyanoanilinyl)-6-(2,6-difluoro-4-cyanoethyl-phenoxy)-3-aminopyridine] are 0.0028 µM, > 3640 and > 10.2 µM.
For `COC(=O)CCc1cc(F)c(Oc2ccc(N)c(Nc3ccc(C#N)cc3)n2)c(F)c1` [Compound 23, N^2-(4-cyanoanilinyl)-6-(2,6-difluoro-4-methyl propionatephenoxy)-3-aminopyridine], the EC50 in data set [1] is 0.099 µM. The selectivity ratio at 2 days in data set [2] is > 155. Moreover, the CC50 at 4 d in data set [3] was > 15.3 µM.
With `N#Cc1ccc(Nc2nc(Oc3c(F)cc(CCCO)cc3F)ccc2N)cc1` [Compound 24, N^2-(4-cyanoanilinyl)-6-(2,6-difluoro-4-(3-hydroxypropyl)phenoxy)-3-aminopyridine], the EC50 in data set [1] came to 0.048 µM. In data set [2], the selectivity ratio at 2 days is > 525. The CC50 at 4 d in data set [3] was > 25.2 µM.
The corresponding values for `COc1cc(/C=C/C#N)cc(Br)c1Oc1ccc(N)c(Nc2ccc(C#N)cc2)n1` [Compound 26B] are 0.0257 µM, 1210 and 21.3 µM.
As to `CC(=O)CCc1cc(F)c(Oc2ccc(N)c(Nc3ccc(C#N)cc3)n2)c(F)c1` [Compound 30, N^2-(4-cyanoanilinyl)-6-(2,6-difluoro-4-(2-butanonyl)phenoxy)-3-aminopyridine], the EC50 in data set [1] worked out at 0.0047 µM. In addition, the selectivity ratio at 2 days in data set [2] is > 2130. The CC50 at 4 d in data set [3] was > 9.8 µM.
The corresponding values for `Cc1cc(CCC#N)cc(C)c1Oc1cc(Nc2ccc(C#N)cc2)c(N)cc1C(=O)NN` [Compound 36, 5-(4″-cyanoethyl-2″,6″-dimethylphenoxy)-N^1-(4′-cyanophenyl)-4-formhydrazide-1,2-phenylenediamine] are 0.0191 µM, > 1190 and > 22.7 µM.
The corresponding values for `CC(=O)OCc1cc(N)c(Nc2ccc(C#N)cc2)cc1Oc1c(C)cc(CCC#N)cc1C` [Compound 37, 4-acetyloxymethyl-N^1-(4′-cyanophenyl)-5-(4″-cyanoethyl-2″,6″-dimethylphenoxy)-1,2-phenylenediamine] are 0.00329 µM, > 1520 and > 5 µM.
As to `COCc1cc(N)c(Nc2ccc(C#N)cc2)cc1Oc1c(C)cc(CCC#N)cc1C` [Compound 38, N^1-(4′-cyanophenyl)-5-(4″-cyanoethyl-2″,6″-dimethylphenoxy)-4-methoxymethyl-1,2-phenylenediamine], the EC50 in data set [1] was determined as 0.00218 µM. Also, the selectivity ratio at 2 days in data set [2] is > 2290. Further, the CC50 at 4 d in data set [3] is > 5 µM.
The corresponding values for `Cc1cc(CCC#N)cc(C)c1Oc1cc(Nc2ccc(C#N)cc2)c(N)cc1COC(=O)C1CC1` [Compound 39, N^1-(4′-cyanophenyl)-5-(4″-cyanoethyl-2″,6″-dimethylphenoxy)-4-cyclopropionyloxymethyl-1,2-phenylenediamine] are 0.00163 µM, > 3070 and > 5 µM.
With `Cc1cc(CCC#N)cc(C)c1Oc1cc(Nc2ccc(C#N)cc2)c(N)cc1CN(C)C` [Compound 40, N^1-(4′-cyanophenyl)-5-(4″-cyanoethyl-2″,6″-dimethylphenoxy)-4-[N,N-dimethylaminomethyl]-1,2-phenylenediamine], the EC50 in data set [1] was determined as 0.00273 µM. In addition, the selectivity ratio at 2 days in data set [2] is > 1830. Further, in data set [3], the CC50 at 4 d was > 5 µM.
`CCNC(=O)c1cc(N)c(Nc2ccc(C#N)cc2)cc1Oc1c(C)cc(CCC#N)cc1C` [Compound 41]: the EC50 in data set [1] is 0.00463 µM. In addition, in data set [2], the selectivity ratio at 2 days was > 1080. Besides, the CC50 at 4 d in data set [3] was > 5 µM.
On to `Cc1cc(CCC#N)cc(C)c1Oc1cc(Nc2ccc(C#N)cc2)c(N)cc1C(=O)N(C)C` [Compound 42, N^1-(4′-cyanophenyl)-5-(4″-cyanoethyl-2″,6″-dimethylphenoxy)-4-[N,N-dimethylformamido]-1,2-phenylenediamine], for which, in data set [1], the EC50 was 0.00617 µM. Moreover, in data set [2], the selectivity ratio at 2 days was > 810. Moreover, the CC50 at 4 d in data set [3] is > 5 µM.
The corresponding values for `Cc1cc(CCC#N)cc(C)c1Oc1cc(Nc2ccc(C#N)cc2)c(N)cc1C(=O)NC1CC1` [Compound 43, N^1-(4′-cyanophenyl)-5-(4″-cyanoethyl-2″,6″-dimethylphenoxy)-4-[N-cyclopropylformamido]-1,2-phenylenediamine] are 0.00133 µM, > 3760 and > 5 µM.

One may read the melting point as the temperature of the solid-liquid transition.
